Assay results published in the supplement of paper PMC10627819.

Legend:
S. aureus DSM 20231 = experiment: Bliss interaction score (quartile over a dose matrix) (fitness difference); higher = more antagonism (negative = synergy)
Outline: (§1)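 Fitness is OD595 at stationary-phase entry relative to the plate's robust no-drug mean, capped at 1. Single-drug fitness was inferred from combinations. The Bliss score is observed minus product-expected fitness, summarised by quartiles over technical, biological and donor/recipient replicates.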

S. pneumoniae D39V [1] = experiment: as above
Outline: as §1

B. subtilis 168 [2] = experiment: as above
Outline: as §1

S. aureus Newman [3] = experiment: as above
Outline: as §1

S. pneumoniae D39V [4] = experiment: fitness (endpoint OD595 vs no drug) (fraction); higher = more growth
Outline: (§2)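 Fitness compares growth at the stationary-phase transition with the robust mean of no-drug control wells, as a ratio of optical densities. The ratio is capped at 1. Wells of 384-well plates held 30 µl, or 55 µl for S. pneumoniae, inoculated at OD595 0.01. Readings at OD595 every 30 min for 14 h at 37 °C were corrected against the first reading.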

B. subtilis 168 [5] = experiment: as above
Outline: as §2

S. aureus Newman [6] = experiment: as above
Outline: as §2

[7] = first compound 2 µg/mL, partner 0.039 µg/mL
[8] = first compound 2 µg/mL, partner 0.078 µg/mL
[9] = first compound 2 µg/mL, partner 0.156 µg/mL
[10] = first compound 2 µg/mL, partner 0.25 µg/mL, one replicate
[11] = first compound 2 µg/mL, partner 0.5 µg/mL, one replicate
[12] = first compound 2 µg/mL, partner 0.03125 µg/mL
[13] = first compound 2 µg/mL, partner 0.0625 µg/mL
[14] = first compound 2 µg/mL, partner 0.125 µg/mL
[15] = first compound 4 µg/mL, partner 0.03125 µg/mL
[16] = first compound 4 µg/mL, partner 0.0625 µg/mL
[17] = first compound 4 µg/mL, partner 0.125 µg/mL
[18] = first compound 4 µg/mL, partner 0.25 µg/mL
[19] = first compound 4 µg/mL, partner 0.5 µg/mL
[20] = first compound 8 µg/mL, partner 0.03125 µg/mL
[21] = first compound 8 µg/mL, partner 0.0625 µg/mL
[22] = first compound 8 µg/mL, partner 0.25 µg/mL
[23] = first compound 8 µg/mL, partner 0.5 µg/mL
[24] = first compound 16 µg/mL, partner 0.125 µg/mL, one replicate
[25] = first compound 16 µg/mL, partner 0.25 µg/mL, one replicate
[26] = first compound 16 µg/mL, partner 0.5 µg/mL, one replicate
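For Bliss interaction score (quartile over a dose matrix) in this document: first quartile when negative (synergy) and third quartile when positive (antagonism).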

**Q.** For `CN[C@@H]1[C@H](O[C@H]2[C@H](O[C@H]3[C@H](O)[C@@H](O)[C@H](N=C(N)N)[C@@H](O)[C@@H]3N=C(N)N)O[C@@H](C)[C@]2(O)C=O)O[C@@H](CO)[C@H](O)[C@H]1O` [Streptomycin] + CN(C)c1cc(NC(=O)CNC(C)(C)C)c(O)c2c1C[C@H]1C[C@H]3[C@H](N(C)C)C(O)=C(C(N)=O)C(=O)[C@@]3(O)C(O)=C1C2=O [Tigecycline], which Bliss interaction score (S. aureus DSM 20231) is on record?
**A.** 0.064

**Q.** And the Bliss interaction score (S. pneumoniae D39V [1])?
**A.** 0.0816

**Q.** And the Bliss interaction score (B. subtilis 168 [2])?
**A.** 0.145

**Q.** What about the Bliss interaction score (S. aureus Newman [3]) of the same compound?
**A.** 0.0427

**Q.** And the fitness (S. pneumoniae D39V [4]; first compound 2 µg/mL, partner 0.65 µg/mL)?
**A.** 0.96

**Q.** And the fitness (S. pneumoniae D39V [4]; first compound 2 µg/mL, partner 1.3 µg/mL)?
**A.** 0.973

**Q.** And the fitness (S. pneumoniae D39V [4]; first compound 2 µg/mL, partner 2.6 µg/mL)?
**A.** 0.891

**Q.** And the fitness (S. pneumoniae D39V [4]; first compound 4 µg/mL, partner 0.65 µg/mL)?
**A.** 0.968

**Q.** And the fitness (S. pneumoniae D39V [4]; first compound 4 µg/mL, partner 1.3 µg/mL)?
**A.** 0.989

**Q.** What about the fitness (S. pneumoniae D39V [4]; first compound 4 µg/mL, partner 2.6 µg/mL) of the same compound?
**A.** 0.962

**Q.** And the fitness (S. pneumoniae D39V [4]; first compound 8 µg/mL, partner 0.65 µg/mL)?
**A.** 0.88

**Q.** What about the fitness (S. pneumoniae D39V [4]; first compound 8 µg/mL, partner 1.3 µg/mL) of the same compound?
**A.** 0.938

**Q.** And the fitness (S. pneumoniae D39V [4]; first compound 8 µg/mL, partner 2.6 µg/mL)?
**A.** 0.914

**Q.** What about the fitness (S. pneumoniae D39V [4]; first compound 16 µg/mL, partner 0.65 µg/mL, one replicate) of the same compound?
**A.** 0.866

**Q.** What about the fitness (S. pneumoniae D39V [4]; first compound 16 µg/mL, partner 1.3 µg/mL, one replicate) of the same compound?
**A.** 0.81

**Q.** And the fitness (S. pneumoniae D39V [4]; first compound 16 µg/mL, partner 2.6 µg/mL, one replicate)?
**A.** 0.829

**Q.** What about the fitness (B. subtilis 168 [5]; [7]) of the same compound?
**A.** 0.974

**Q.** And the fitness (B. subtilis 168 [5]; [8])?
**A.** 0.985

**Q.** What about the fitness (B. subtilis 168 [5]; first compound 2 µg/mL, partner 0.125 µg/mL, one replicate) of the same compound?
**A.** 0.98

**Q.** And the fitness (B. subtilis 168 [5]; [9])?
**A.** 0.968

**Q.** And the fitness (B. subtilis 168 [5]; [10])?
**A.** 0.955

**Q.** And the fitness (B. subtilis 168 [5]; [11])?
**A.** 0.951

**Q.** What about the fitness (B. subtilis 168 [5]; first compound 4 µg/mL, partner 0.125 µg/mL, one replicate) of the same compound?
**A.** 0.982

**Q.** And the fitness (B. subtilis 168 [5]; first compound 4 µg/mL, partner 0.25 µg/mL, one replicate)?
**A.** 0.914

**Q.** What about the fitness (B. subtilis 168 [5]; first compound 4 µg/mL, partner 0.5 µg/mL, one replicate) of the same compound?
**A.** ≥ 1

**Q.** What about the fitness (B. subtilis 168 [5]; first compound 8 µg/mL, partner 0.125 µg/mL, one replicate) of the same compound?
**A.** 0.481

**Q.** And the fitness (B. subtilis 168 [5]; first compound 8 µg/mL, partner 0.25 µg/mL, one replicate)?
**A.** 0.474

**Q.** And the fitness (B. subtilis 168 [5]; first compound 8 µg/mL, partner 0.5 µg/mL, one replicate)?
**A.** 0.519

**Q.** And the fitness (S. aureus Newman [6]; first compound 1 µg/mL, partner 0.039 µg/mL)?
**A.** 0.94

**Q.** What about the fitness (S. aureus Newman [6]; first compound 1 µg/mL, partner 0.078 µg/mL) of the same compound?
**A.** 0.986

**Q.** And the fitness (S. aureus Newman [6]; first compound 1 µg/mL, partner 0.156 µg/mL)?
**A.** 0.971

**Q.** And the fitness (S. aureus Newman [6]; [7])?
**A.** 0.966

**Q.** And the fitness (S. aureus Newman [6]; [8])?
**A.** 0.95

**Q.** And the fitness (S. aureus Newman [6]; [9])?
**A.** 0.989

**Q.** `CN[C@@H]1[C@H](O[C@H]2[C@H](O[C@H]3[C@H](O)[C@@H](O)[C@H](N=C(N)N)[C@@H](O)[C@@H]3N=C(N)N)O[C@@H](C)[C@]2(O)C=O)O[C@@H](CO)[C@H](O)[C@H]1O` [Streptomycin] + CN[C@H](CC(C)C)C(=O)N[C@H]1C(=O)N[C@@H](CC(N)=O)C(=O)N[C@H]2C(=O)N[C@H]3C(=O)N[C@H](C(=O)N[C@H](C(=O)O)c4cc(O)cc(O)c4-c4cc3ccc4O)[C@H](O)c3ccc(c(Cl)c3)Oc3cc2cc(c3O[C@@H]2O[C@H](CO)[C@@H](O)[C@H](O)[C@H]2O[C@H]2C[C@](C)(N)[C@H](O)[C@H](C)O2)Oc2ccc(cc2Cl)[C@H]1O [Vancomycin] was tested. Which Bliss interaction score (S. aureus DSM 20231) did it give?
**A.** 0.0918

**Q.** And the Bliss interaction score (S. pneumoniae D39V [1])?
**A.** 0.088

**Q.** And the Bliss interaction score (B. subtilis 168 [2])?
**A.** -0.0393

**Q.** And the Bliss interaction score (S. aureus Newman [3])?
**A.** 0.055

**Q.** What about the fitness (S. pneumoniae D39V [4]; [12]) of the same compound?
**A.** 0.978

**Q.** What about the fitness (S. pneumoniae D39V [4]; [13]) of the same compound?
**A.** 0.921

**Q.** What about the fitness (S. pneumoniae D39V [4]; [14]) of the same compound?
**A.** 0.942

**Q.** What about the fitness (S. pneumoniae D39V [4]; [10]) of the same compound?
**A.** 0.422

**Q.** What about the fitness (S. pneumoniae D39V [4]; [11]) of the same compound?
**A.** 0.0318

**Q.** And the fitness (S. pneumoniae D39V [4]; [15])?
**A.** 0.956

**Q.** What about the fitness (S. pneumoniae D39V [4]; [16]) of the same compound?
**A.** 0.969

**Q.** And the fitness (S. pneumoniae D39V [4]; [17])?
**A.** 0.942

**Q.** And the fitness (S. pneumoniae D39V [4]; [18])?
**A.** 0.704

**Q.** And the fitness (S. pneumoniae D39V [4]; [19])?
**A.** 0.0741

**Q.** What about the fitness (S. pneumoniae D39V [4]; [20]) of the same compound?
**A.** 0.941

**Q.** What about the fitness (S. pneumoniae D39V [4]; [21]) of the same compound?
**A.** 0.913

**Q.** What about the fitness (S. pneumoniae D39V [4]; [22]) of the same compound?
**A.** 0.691

**Q.** What about the fitness (S. pneumoniae D39V [4]; [23]) of the same compound?
**A.** 0.0434

**Q.** And the fitness (S. pneumoniae D39V [4]; [24])?
**A.** 0.825

**Q.** And the fitness (S. pneumoniae D39V [4]; [25])?
**A.** 0.112

**Q.** And the fitness (S. pneumoniae D39V [4]; [26])?
**A.** 0.0914

**Q.** What about the fitness (S. aureus Newman [6]; first compound 1 µg/mL, partner 0.1875 µg/mL) of the same compound?
**A.** 0.959

**Q.** What about the fitness (S. aureus Newman [6]; first compound 1 µg/mL, partner 0.375 µg/mL) of the same compound?
**A.** 0.952

**Q.** And the fitness (S. aureus Newman [6]; first compound 1 µg/mL, partner 0.75 µg/mL)?
**A.** 0.978

**Q.** And the fitness (S. aureus Newman [6]; first compound 2 µg/mL, partner 0.1875 µg/mL)?
**A.** 0.941

**Q.** What about the fitness (S. aureus Newman [6]; first compound 2 µg/mL, partner 0.375 µg/mL) of the same compound?
**A.** 0.946

**Q.** And the fitness (S. aureus Newman [6]; first compound 2 µg/mL, partner 0.75 µg/mL)?
**A.** 0.944

**Q.** What does the source list for `CN[C@@H]1[C@H](O[C@H]2[C@H](O[C@H]3[C@H](O)[C@@H](O)[C@H](N=C(N)N)[C@@H](O)[C@@H]3N=C(N)N)O[C@@H](C)[C@]2(O)C=O)O[C@@H](CO)[C@H](O)[C@H]1O` [Streptomycin] + Cn1nnc(-c2ccc(-c3ccc(N4C[C@H](CO)OC4=O)cc3F)cn2)n1 [Tedizolid]?
**A.** Bliss interaction score (S. aureus DSM 20231): 0.155; Bliss interaction score (S. pneumoniae D39V [1]): -0.057; Bliss interaction score (B. subtilis 168 [2]): 0.189; Bliss interaction score (S. aureus Newman [3]): -0.188; fitness (S. pneumoniae D39V [4]; [12]): 0.896; fitness (S. pneumoniae D39V [4]; [13]): 0.952; fitness (S. pneumoniae D39V [4]; [14]): 0.811; fitness (S. pneumoniae D39V [4]; [10]): 0.748; fitness (S. pneumoniae D39V [4]; [11]): 0.373; fitness (S. pneumoniae D39V [4]; [15]): 0.898; fitness (S. pneumoniae D39V [4]; [16]): 0.886; fitness (S. pneumoniae D39V [4]; [17]): 0.788; fitness (S. pneumoniae D39V [4]; [18]): 0.739; fitness (S. pneumoniae D39V [4]; [19]): 0.336; fitness (S. pneumoniae D39V [4]; [20]): 0.893; fitness (S. pneumoniae D39V [4]; [21]): 0.912; fitness (S. pneumoniae D39V [4]; first compound 8 µg/mL, partner 0.125 µg/mL): 0.829; fitness (S. pneumoniae D39V [4]; [22]): 0.732; fitness (S. pneumoniae D39V [4]; [23]): 0.353; fitness (S. pneumoniae D39V [4]; [24]): 0.695; fitness (S. pneumoniae D39V [4]; [25]): 0.531; fitness (S. pneumoniae D39V [4]; [26]): 0.236; fitness (S. aureus Newman [6]; first compound 1 µg/mL, partner 0.0625 µg/mL): 0.928; fitness (S. aureus Newman [6]; first compound 1 µg/mL, partner 0.125 µg/mL): 0.767
